Test results: patent US8741836B2, “Polypeptides” (Novo Nordisk A/S, priority 2011, dated 2014)
Starred links: 1 amine or outer side, 2 acyl side, 3 side chain; linkers in the order of their positions; H or OH if unused. Positions of bridges follow the written chain, without caps; N, C: chain ends. Residues, ends and D or L forms follow the SMILES beside them. *: point of attachment. C20 diacid = O=C(O)CCCCCCCCCCCCCCCCCCC(=O)*; γGlu = O=C(O)[C@H](CCC(=O)[*:2])N[*:1]

Experiments:
[1] = Assay (III) ThT fibrillation assay for physical stability; type: physicochemical; conditions: for ThT pH 4.0 lag time: pH 4.0, ThT fibrillation assay
Method in brief: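 Freshly prepared, pH-adjusted formulations with 1 μM ThT incubated at 37 °C under 960 rpm orbital shaking (1 mm), fluorescence (ex 444, em 485 nm) read every 20 min. […] Peptide content before and after measured by reverse-phase HPLC against pramlintide standard.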

[2] = tested on: ad libitum fed rat; test: Assay (I) efficacy testing on appetite (food intake) using an ad libitum fed rat model; type: in vivo, Sprague Dawley (SD) rats; conditions: 3 nmol/kg
Method in brief: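 Ad libitum fed Sprague Dawley rats, 200-250 g, singly housed on reversed light cycle, got one ip, po or sc dose of 0.01-3 mg/kg just before lights off; groups of 5-8 with vehicle control. Food intake recorded hourly for 7 h, then at 24 h and sometimes 48 h; Grubbs outliers excluded.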

Row | ThT pH 4.0 lag time [1] [h] | ThT pH 4.0 lag time (physical stability in fibrillogenesis assay) [1] [h] | SMILES | Food intake reduction 0-24 h 3 nmol/kg (%) [2] [%] | Food intake reduction 24-48 h 3 nmol/kg (%) [2] [%]
1 | >45 |  | CC[C@H](C)[C@H](NC(=O)[C@@H]1CCCN1C(=O)CNC(=O)[C@H](Cc1ccccc1)NC(=O)[C@H](CC(N)=O)NC(=O)[C@H](CC(N)=O)NC(=O)[C@H](CO)NC(=O)[C@H](CO)NC(=O)[C@H](Cc1c[nH]cn1)NC(=O)[C@H](CCCNC(=N)N)NC(=O)[C@H](CC(C)C)NC(=O)[C@H](Cc1ccccc1)NC(=O)[C@H](CCC(=O)O)NC(=O)[C@H](C)NC(=O)[C@H](CC(C)C)NC(=O)[C@H](CCCNC(=N)N)NC(=O)[C@H](CCC(N)=O)NC(=O)[C@@H](NC(=O)[C@H](C)NC(=O)[C@@H]1CSSC[C@H](NC(=O)[C@H](CCCCN)NC(=O)CC[C@H](NC(=O)CCCCCCCCCCCCCCCCCCC(=O)O)C(=O)O)C(=O)N[C@@H](CC(N)=O)C(=O)N[C@@H]([C@@H](C)O)C(=O)N[C@@H](C)C(=O)N[C@@H]([C@@H](C)O)C(=O)N1)[C@@H](C)O)C(=O)N[C@@H](CC(C)C)C(=O)N1CCC[C@H]1C(=O)N1CCC[C@H]1C(=O)N[C@H](C(=O)N[C@@H](CC(N)=O)C(=O)N[C@H](C(=O)NCC(=O)N[C@@H](CO)C(=O)N[C@@H](CC(N)=O)C(=O)N[C@H](C(=O)N[C@@H](Cc1ccc(O)cc1)C(N)=O)[C@@H](C)O)C(C)C)[C@@H](C)O [Example 50, N-alpha-[(S)-4-Carboxy-4-(19-carboxynonadecanoylamino)butyryl]-[Glu14,Arg17]-pramlintide] ({C20 diacid-γGlu}-KCNTATCATQRLAEFLRHSSNNFGPILPPTNVGSNTY-NH2; disulfide 2-7 (inferred); C-terminus assumed) | 30 | 8
2 | >45 |  | CC[C@H](C)[C@H](NC(=O)[C@@H]1CCCN1C(=O)CNC(=O)[C@H](Cc1ccccc1)NC(=O)[C@H](CC(N)=O)NC(=O)[C@H](CC(N)=O)NC(=O)[C@H](CO)NC(=O)[C@H](CO)NC(=O)[C@H](Cc1c[nH]cn1)NC(=O)[C@H](CCCNC(=N)N)NC(=O)[C@H](CC(C)C)NC(=O)[C@H](Cc1ccccc1)NC(=O)[C@H](CCC(=O)O)NC(=O)[C@H](C)NC(=O)[C@H](CC(C)C)NC(=O)[C@H](CCCNC(=N)N)NC(=O)[C@H](CCC(N)=O)NC(=O)[C@@H](NC(=O)[C@H](C)NC(=O)[C@@H]1CSSC[C@H](NC(=O)[C@H](CCCCN)NC(=O)CC[C@H](NC(=O)CCCCCCCCCCCCCCCCCCC(=O)O)C(=O)O)C(=O)N[C@@H](CC(N)=O)C(=O)N[C@@H]([C@@H](C)O)C(=O)N[C@@H](C)C(=O)N[C@@H]([C@@H](C)O)C(=O)N1)[C@@H](C)O)C(=O)N[C@@H](CC(C)C)C(=O)N1CCC[C@H]1C(=O)N1CCC[C@H]1C(=O)N[C@H](C(=O)N[C@@H](CC(N)=O)C(=O)N[C@H](C(=O)NCC(=O)N[C@@H](CO)C(=O)N[C@@H](Cc1c[nH]cn1)C(=O)N[C@H](C(=O)N[C@@H](Cc1ccc(O)cc1)C(N)=O)[C@@H](C)O)C(C)C)[C@@H](C)O [Example 57, N-alpha-[(S)-4-Carboxy-4-(19-carboxynonadecanoylamino)butyryl]-[Glu14,Arg17,His35]-pramlintide] ({C20 diacid-γGlu}-KCNTATCATQRLAEFLRHSSNNFGPILPPTNVGSHTY-NH2; disulfide 2-7 (inferred)) | 17 | 0
3 | >45 | >45 | CC[C@H](C)[C@H](NC(=O)[C@@H]1CCCN1C(=O)CNC(=O)[C@H](Cc1ccccc1)NC(=O)[C@H](CC(N)=O)NC(=O)[C@H](CC(N)=O)NC(=O)[C@H](CO)NC(=O)[C@H](CO)NC(=O)[C@H](Cc1c[nH]cn1)NC(=O)[C@H](CCCNC(=N)N)NC(=O)[C@H](CC(C)C)NC(=O)[C@H](Cc1ccccc1)NC(=O)[C@H](CCC(=O)O)NC(=O)[C@H](C)NC(=O)[C@H](CC(C)C)NC(=O)[C@H](CCCNC(=N)N)NC(=O)[C@H](CCC(N)=O)NC(=O)[C@@H](NC(=O)[C@H](C)NC(=O)[C@@H]1CSSC[C@H](NC(=O)[C@H](CCCCN)NC(=O)CC[C@H](NC(=O)CCCCCCCCCCCCCCCCCCC(=O)O)C(=O)O)C(=O)N[C@@H](CC(N)=O)C(=O)N[C@@H]([C@@H](C)O)C(=O)N[C@@H](C)C(=O)N[C@@H]([C@@H](C)O)C(=O)N1)[C@@H](C)O)C(=O)N[C@@H](CC(C)C)C(=O)N1CCC[C@H]1C(=O)N1CCC[C@H]1C(=O)N[C@H](C(=O)N[C@@H](CC(N)=O)C(=O)N[C@H](C(=O)NCC(=O)N[C@@H](CO)C(=O)N[C@@H](CC(N)=O)C(=O)N[C@H](C(=O)N1CCC[C@H]1C(N)=O)[C@@H](C)O)C(C)C)[C@@H](C)O [Example 53, N-alpha-[(S)-4-Carboxy-4-(19-carboxynonadecanoylamino)butyryl]-[Glu14,Arg17,Pro37]-pramlintide] | 40 | 28
4 | >45 | >45 | CC[C@H](C)[C@H](NC(=O)[C@@H]1CCCN1C(=O)CNC(=O)[C@H](Cc1ccccc1)NC(=O)[C@H](CC(N)=O)NC(=O)[C@H](CC(N)=O)NC(=O)[C@H](CO)NC(=O)[C@H](CO)NC(=O)[C@H](Cc1c[nH]cn1)NC(=O)[C@H](CCCNC(=N)N)NC(=O)[C@H](CC(C)C)NC(=O)[C@H](Cc1ccccc1)NC(=O)[C@H](CCC(=O)O)NC(=O)[C@H](C)NC(=O)[C@H](CC(C)C)NC(=O)[C@H](CCCNC(=N)N)NC(=O)[C@H](CCC(N)=O)NC(=O)[C@@H](NC(=O)[C@H](C)NC(=O)[C@@H]1CSSC[C@H](NC(=O)[C@H](Cc2c[nH]cn2)NC(=O)CNC(=O)CC[C@H](NC(=O)CCCCCCCCCCCCCCCCCCC(=O)O)C(=O)O)C(=O)N[C@@H](CC(N)=O)C(=O)N[C@@H]([C@@H](C)O)C(=O)N[C@@H](C)C(=O)N[C@@H]([C@@H](C)O)C(=O)N1)[C@@H](C)O)C(=O)N[C@@H](CC(C)C)C(=O)N1CCC[C@H]1C(=O)N1CCC[C@H]1C(=O)N[C@H](C(=O)N[C@@H](CC(N)=O)C(=O)N[C@H](C(=O)NCC(=O)N[C@@H](CO)C(=O)N[C@@H](CC(N)=O)C(=O)N[C@H](C(=O)N1CCC[C@H]1C(N)=O)[C@@H](C)O)C(C)C)[C@@H](C)O [Example 89, N-alpha-[(S)-4-Carboxy-4-(19-carboxynonadecanoylamino)butyryl]-Gly-[His1,Glu14,Arg17,Pro37]-pramlintide] ({C20 diacid-γGlu}-GHCNTATCATQRLAEFLRHSSNNFGPILPPTNVGSNTP-NH2; disulfide 3-8 (inferred)) | 42 | 23
